# Where two headings read alike, the source gives them in different places.
# Tests used:
# [1] = tested on: P. falciparum clinical isolates from Porto Velho, Brazil; experiment: Ex vivo schizont maturation assay, Brazilian clinical isolates; assay type: cell-based, Plasmodium falciparum; conditions: Plasmodium falciparum
# Procedure: Only monoinfected patients with P. falciparum with parasitemia between 2000 and 80,000 parasites/μl and with at least 70% of ring-stage parasites were recruited. Patients who had used an antimalarial in the previous month and/or presented with symptoms of severe malaria were excluded from the study. The study cohort comprised 24 patients living in this highly endemic area. A peripheral venous blood sample (5 ml) was collected from each individual by venipuncture in heparin-containing tubes and immediately used in the ex vivo drug susceptibility assay using preprepared plates containing diluted antimalarial compounds. […] Last, 20 μl of each dilution was transferred into the ex vivo assay plate and diluted 10-fold into the final assay medium containing parasites. For the infected blood preparation, 5 ml of whole blood was centrifuged at 800g for 10 min, and the plasma and buffy coat were removed. […] Control assays on a 3D7 laboratory isolate were performed with medium supplemented with human serum (20%). The iRBC (180 μl per well) were distributed in the predosed drug plate. […] Control wells containing drug-free iRBCs were cultured with complete medium. The parasite-drug incubation was terminated when 40% of the ring stages reached the schizont stage (at least three distinct nuclei per parasite) in the drug-free control wells. Thick blood films were then made from each well, dried, stained with 5% Giemsa solution for 30 min, and examined microscopically. The number of schizonts per 200 asexual-stage parasites was determined for each drug concentration and then normalized by comparing with the schizont number in the drug-free control wells [considered as 100% ([64])]. The half-maximal drug inhibitory response (EC50) was estimated by curve fitting using software from the OriginLab Corporation, Northampton, MA, USA and comparing with parasite growth in the drug-free controls.
# [2] = tested on: P. falciparum (clone 3D7); experiment: Parasite reduction ratio (PRR) assay; assay type: cell-based, Plasmodium falciparum; conditions: for Lag phase / Log PRR / PCT99.9% (hours taken to kill 99.9% of the parasites): 10× EC50, 3D7; for Slope: 10× EC50, 3D7 killing profile; for Killing profile: 10× EC50, faster than pyrimethamine, slower than chloroquine
# Procedure: The in vitro killing profile of compounds was determined by monitoring the ability of parasites to recover following treatment with a compound of interest using a previously reported approach ([50]), which allowed calculation of the PRR ([51]). […] To quantify the number of viable parasites following treatment, four independent sets of threefold serial dilutions were performed on each sample, which were assayed for the presence or absence of parasites after 28 days using the LDH assay, and the number of viable parasites was determined by the number of wells showing growth. PRR and PCT99.9% were calculated as previously reported ([50]).
# [3] = tested on: P. falciparum stage V gametocytes (female gamete formation); experiment: Female gamete formation inhibition assay; assay type: cell-based, Plasmodium falciparum; conditions: 2 μM, 48 hours
# Procedure: Mature gametocytes (>95% stage V) were treated with compounds (2 μM) for 48 hours before stimulating female gamete formation. To evaluate compound dose response, gametocytes were treated similarly at set concentrations representing a fourfold serial dilution. Female gamete activation was induced by both a temperature drop and the addition of 100 μM XA. Monoclonal anti-Pfs25 antibody (BEI Resources, catalog number MRA-28; 1:1000 dilution) conjugated to fluorescein isothiocyanate was used to detect female gametes. Image acquisition was performed using a Zeiss Axio Lab.A1 epifluorescence microscope with a 100/1.4 numerical aperture oil immersion objective and a Zeiss Axiocam 202 mono digital camera. Using a 100× objective, 30 images were taken per sample and analyzed manually. The number, size, roundness, and intensity of fluorescence of activated female gametocytes were evaluated. Compound IC50 values were determined with nonlinear curve fitting (GraphPad Prism 6), normalized to maximum and minimum inhibition.
# [4] = tested on: P. falciparum stage IV/V gametocytes; experiment: LDH-based gametocyte viability assay; assay type: cell-based, Plasmodium falciparum; conditions: stage IV to V gametocytes
# Procedure: The pLDH assay was performed on late (>95% stage IV/V) gametocytes. Compound dilutions were placed in triplicate in 96-well plates in a final volume of 100 μl per well. DHA and MMV048 were used as positive drug controls. The gametocyte cultures (100 μl per well) were added to the 96-well plates to achieve a final gametocytemia and hematocrit of 2 and 1%, respectively, in a total incubation volume of 200 μl. Plates were incubated at 37°C for 72 hours, followed by the replacement of spent medium with drug-free culture medium (75% medium change) ([54], [55]). Plates were then incubated for a further 72 hours before assessing viability by measuring pLDH activity. Gametocyte viability was determined spectrophotometrically by measuring the activity of pLDH, according to a modified version of a published protocol ([56]). Briefly, 100 μl of Malstat reagent [0.21% (v/v) Triton X-100, 222 mM L-(+)-lactic acid, 54.5 mM tris, 0.166 mM APAD (Sigma-Aldrich, A5251), adjusted to pH 9 with 1 M NaOH] was transferred into a clean 96-well plate. A fixed volume of 20 μl of parasite suspension per well was added to the Malstat plate, followed by the addition of 25 μl of PES/NBT (0.239 mM phenazine ethosulfate and 1.96 mM nitro blue tetrazolium chloride). Absorbance was measured with a Multiskan Ascent 354 multiplate scanner (Thermo LabSystems, Finland) at 620 nm.
# [5] = tested on: P. falciparum stage V gametocytes (male gamete formation); experiment: Exflagellation (male gamete formation) inhibition assay; assay type: cell-based, Plasmodium falciparum; conditions: 2 μM, 48 hours
# Procedure: The exflagellation inhibition assay was performed by capturing movement of exflagellation centers over time by video microscopy [adapted from a reported protocol ([52])]. For this carry-over format, mature stage V gametocytes were treated with 2 μM of each compound for 48 hours before induction of exflagellation in the presence of compound. To evaluate compound dose response, gametocytes were treated similarly at a set of concentrations representing a fourfold serial dilution. Mature gametocyte cultures (>95% stage V; 500 μl) were centrifuged at 3500 rpm for 30 s, and the pellet was resuspended in 30 μl of ookinete medium [RPMI 1640 medium containing L-glutamine (Sigma-Aldrich, R6504), gentamycin (0.024 mg/ml; HyClone, SV30080.01), 202 μM hypoxanthine (Sigma-Aldrich, H9636), 25 mM Hepes (Sigma-Aldrich, H4034), 0.2% glucose (Sigma-Aldrich, G6152), and 0.5% (w/v) AlbuMAX II (Invitrogen, Paisley, UK), supplemented with 100 μM XA and 20% human serum]. The activated culture (10 μl) was introduced into a Neubauer chamber and placed on the microscope platform to settle homogenously. Time was noted as time zero (T0), and the chamber was incubated at room temperature. Movement was recorded by video microscopy using a Carl Zeiss NT 6V/10W Stab microscope, fitted with a MicroCapture camera at 10× magnification, and then quantified by a semiautomated method, a modification of the method described previously ([53]). A series of 15 videos of 8 to 10 s each were captured at random locations between 15 and 22.5 min after incubation. Each video was analyzed using Icy bioimage analysis software to quantify the number of exflagellating centers. Compound IC50 values were determined with nonlinear curve fitting (GraphPad Prism 6), normalized to maximum and minimum inhibition.
# HepG2 cells = experiment: HepG2 cytotoxicity; assay type: cell-based
# Source text: Table 1. Key activity data for the three main chemical subseries against ABS parasites, parasite fractions, and HepG2 cells. ND, not determined; ×/÷ is the geometric mean with geometric SD. | column: HepG2 EC50 (nM) (selectivity index)
Structure (SMILES),"EC50 ([1]; read-out: EC50 range, clinical isolates)","EC50 ([1]; read-out: Median EC50, clinical isolates)",Lag phase [2],Log PRR [2],PCT99.9% (hours taken to kill 99.9% of the parasites) [2],Slope [2],% inhibition of female gamete formation at 2 μM [3],% inhibition gametocyte viability at 15 μM [4],% inhibition of exflagellation at 2 μM [5],EC50 (HepG2 cells),Killing profile [2]
"C[C@H]1[C@H](OC(=O)CCC(=O)O)O[C@@H]2O[C@@]3(C)CC[C@H]4[C@H](C)CC[C@@H]1[C@@]24OO3 [Artesunate, reference compound]",0.1 to 9 nM,0.6 nM,0 h,>8,<24 h,–,–,–,–,–,–
"O=C1C(O)=C([C@H]2CC[C@H](c3ccc(Cl)cc3)CC2)C(=O)c2ccccc21 [Atovaquone, reference compound]",–,–,48 h,2.26,73.0 h,−0.0470 ± 0.0042,–,–,–,–,–
CC(C)c1n[nH]c2c(=O)[nH]c(C3CCOc4ccc(F)cc43)nc12 (stereo not drawn) [SAL-0010007],–,–,–,–,–,–,50.6 ± 1.9%,100 ± 0%,100 ± 0%,–,–
CCc1c2nc(-c3cc(C(=O)NC)cnc3OCC(C)C)[nH]c(=O)c2nn1CCOC [SAL-0010031],–,–,0 h,2.78,51.2 h,−0.0579 ± 0.0058,–,–,–,> 25000 nM,fast/moderate killing profile
CCCCOc1ncc(Br)cc1-c1nc2c(C(C)C)n[nH]c2c(=O)[nH]1 [SAL-0010203],–,–,–,–,–,–,44.8 ± 1.7%,0%,76.7 ± 13.6%,–,–
CC(C)COc1ccc(S(=O)(=O)N(C)C)cc1-c1nc2c(C(C)C)n[nH]c2c(=O)[nH]1 [SAL-0010243],–,–,–,–,–,–,80.5 ± 0.9%,100 ± 0%,95.4 ± 12.3%,–,–
CC(C)COc1ccc(S(=O)(=O)N(C)C)cc1-c1nc2c(C3CCC3)n[nH]c2c(=O)[nH]1 [SAL-0010283],–,–,–,–,–,–,44.8 ± 2.5%,100 ± 0%,72.1 ± 26.0%,–,–
CC(C)COc1ccc(S(=O)(=O)N(C)C)cc1-c1nc2c(C(C)(C)C)n[nH]c2c(=O)[nH]1 [SAL-0010284],–,–,–,–,–,–,58.6 ± 2.1%,100 ± 0%,60.5 ± 18.0%,–,–
CNC(=O)c1cnc(OCC(C)C)c(-c2nc3c(C(C)C)n[nH]c3c(=O)[nH]2)c1 [SAL-0010301],–,–,0 h,2.55,55.1 h,−0.0532 ± 0.0042,–,–,–,> 25000 nM,fast/moderate killing profile

# — article PMC11623267, “Inhibitors of malaria parasite cyclic nucleotide phosphodiesterases block asexual blood-stage development and mosquito transmission” (Science Advances, 2024)
